BindingDB's records for patent US11897898 (Biogen Ma, 2024)

Biological target: T1, Mitogen-activated protein kinase kinase kinase 5 (Homo sapiens, UniProt Q99683)
T1 sequence (Q99683 whole entry): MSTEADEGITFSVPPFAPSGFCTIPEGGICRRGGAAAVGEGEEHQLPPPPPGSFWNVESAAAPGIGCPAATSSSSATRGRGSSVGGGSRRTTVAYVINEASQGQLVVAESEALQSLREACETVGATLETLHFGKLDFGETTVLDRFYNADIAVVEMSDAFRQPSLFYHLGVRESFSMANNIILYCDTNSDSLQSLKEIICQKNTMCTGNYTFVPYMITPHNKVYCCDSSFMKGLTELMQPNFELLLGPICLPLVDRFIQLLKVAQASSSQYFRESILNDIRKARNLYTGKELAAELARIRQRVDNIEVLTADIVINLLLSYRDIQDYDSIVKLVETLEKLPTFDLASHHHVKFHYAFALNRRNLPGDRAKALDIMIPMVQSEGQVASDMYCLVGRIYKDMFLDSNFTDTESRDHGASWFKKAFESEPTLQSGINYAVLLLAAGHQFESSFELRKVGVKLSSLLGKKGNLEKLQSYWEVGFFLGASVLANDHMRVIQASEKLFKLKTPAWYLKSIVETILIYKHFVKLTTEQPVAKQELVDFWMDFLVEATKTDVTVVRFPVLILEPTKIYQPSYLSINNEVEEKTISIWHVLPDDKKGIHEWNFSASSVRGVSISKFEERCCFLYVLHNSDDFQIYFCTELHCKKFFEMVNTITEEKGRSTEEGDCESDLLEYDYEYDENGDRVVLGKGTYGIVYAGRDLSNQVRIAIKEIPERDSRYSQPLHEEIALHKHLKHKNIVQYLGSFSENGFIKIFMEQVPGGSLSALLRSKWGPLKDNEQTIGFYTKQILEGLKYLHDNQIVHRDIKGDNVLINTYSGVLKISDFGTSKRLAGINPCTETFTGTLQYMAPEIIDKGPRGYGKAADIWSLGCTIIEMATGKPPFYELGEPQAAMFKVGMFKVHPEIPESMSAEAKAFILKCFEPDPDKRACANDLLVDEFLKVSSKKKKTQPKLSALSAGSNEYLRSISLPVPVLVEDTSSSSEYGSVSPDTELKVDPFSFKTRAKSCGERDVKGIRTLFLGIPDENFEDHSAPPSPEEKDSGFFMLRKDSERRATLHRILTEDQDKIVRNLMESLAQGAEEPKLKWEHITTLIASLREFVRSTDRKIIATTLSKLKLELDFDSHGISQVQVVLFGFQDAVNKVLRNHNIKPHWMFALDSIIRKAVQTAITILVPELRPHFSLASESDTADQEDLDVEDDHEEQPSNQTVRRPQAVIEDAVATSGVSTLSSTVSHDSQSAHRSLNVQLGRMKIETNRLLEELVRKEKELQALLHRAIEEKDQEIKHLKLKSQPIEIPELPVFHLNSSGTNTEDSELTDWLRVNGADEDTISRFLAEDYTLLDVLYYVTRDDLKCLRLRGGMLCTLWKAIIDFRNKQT
Test: ASK1 Enzyme Assay
Procedure: The protein kinase inhibitory activity of the compounds described herein were tested using the ASK1/MAP3K5 assay by Reaction Biology Corp. (Malvern, Pa.). The assay procedure follows (and is also available on the Reaction Biology Corp. website).Base Reaction Buffer: 20 mM Hepes (pH 7.5), 10 mM MgCl2, 1 mM EGTA,0.02% Brij35, 0.02 mg/mL BSA, 0.1 mM Na3VO4, 2 mM DTT, 1% DMSO;Substrate: 20 μM of myelin basic protein (MBP) and 10 μM ATP;Protein kinase: ASK1/MAP3K5.Reaction Procedure:1. Prepare indicated substrate in freshly prepared Base Reaction Buffer.2. Deliver any required cofactors to the substrate solution.3. Deliver indicated kinase into the substrate solution and gently mix.4. Deliver compounds in DMSO into the kinase reaction mixture by Acoustic; technology (Echo550; nanoliter range), incubate for 20 minutes at room temperature.5. Deliver 33P-ATP (specific activity 10 μCi/μL) into the reaction mixture to initiate the reaction.6. Incubate kinase reaction for 2 hours at room temperature.7. Reactions are spotted onto P81 ion exchange paper.8. Detect kinase activity by filter-binding method.

SMILES | IC50
C[C@@H]1CCCOc2ncc(N3CCOCC3)cc2C(=O)Nc2cccc(n2)-c2nncn21 [US11897898, Example 6] | in the range around 550 nM
C[C@@H]1CCCOc2ncc(-c3ccncc3)cc2C(=O)Nc2cccc(n2)-c2nncn21 [US11897898, Example 18] | in the range around 550 nM
